Data from patent US20160120979A1, “METHOD OF APPLYING A COMPOSITION AND PHARMACEUTICAL COMPOSITION WITH A REGIMEN OF ADMINISTERING IT” (priority 2013, published 2016).

Tests used:
[1] = test system: Staphylococcus aureus MU500; experiment: Experiment 12: replication on antibiotic agar after pulsed 400 nm irradiation; assay type: cell-based; conditions: 24 hours incubation; for E: Staphylococcus aureus MU500 (no irradiation), replication: antibiotic 10 mg/l in MH agar; for F: Staphylococcus aureus MU500 (irradiation), replication: antibiotic 10 mg/l, 400 nm LED pulses 0.02 ms, 1 kHz, 10 minutes
Description: (§1) 15′000′000 multi-resistant bacteriae (0.050 ml of a McFarland of 1) were put on 40 mm diameter petri dishes. The petri dishes comprised MH agar with or without antibiotic.
The LED power during 0.02 ms was measured to be 0.63 W on a Thorlabs power sensor with a surface area of 2.2×2.2 mm representing a power of 13 mW/cm^2.

Acinetobacter = experiment: as above; assay type: cell-based; conditions: 24 hours incubation; for C: Acinetobacter (no irradiation), replication: antibiotic 10 mg/l in MH agar; for D Acinetobacter (irradiation), replication: antibiotic 10 mg/l, 400 nm LED pulses 0.02 ms, 1 kHz, 10 minutes
Description: as §1
(§2) […]. The LED power during 0.02 ms was measured to be 0.63 W on a Thorlabs power sensor with a surface area of 2.2×2.2 mm representing a power of 13 mW/cm^2.

Pseudomonas aeruginosa = experiment: as above; assay type: cell-based; conditions: 24 hours incubation; for A: Pseudomonas aeruginosa (no irradiation), replication: antibiotic 10 mg/l in MH agar; for B: Pseudomonas aeruginosa (irradiation), replication: antibiotic 10 mg/l, 400 nm LED pulses 0.02 ms, 1 kHz, 10 minutes
Description: as §1, §2

[2] = test system: multi-drug resistant MU 50 bacterial cells; experiment: Experiment 1: killing of MU50 by antibiotic with/without riboflavin and UVA 365 nm (CFU); assay type: cell-based, Staphylococcus aureus
Description: The first experiment compares the effect of two antibiotics incubated with multi-drug resistant MU 50 bacterial cells accompanied by exposure to UVA light at 365 nm. […] Furthermore, the antibiotics were administered in the presence and absence of riboflavin, to test the free radical effect of riboflavin.
After addition of the antibiotic and optionally riboflavin to the bacterial samples they were incubated for 1 or for 30 minutes in Experiment 1A and for 30 minutes in Experiment 1B prior to the UV-A exposure at 365 nm with 9 mW/cm^2 for 10 minutes.
In Experiment 1B the added antibiotic was tobramycin at a concentration of 135 μg/ml.

[3] = ofloxacin 240 μg/ml, incubation 1 min, no riboflavin, no UVA
[4] = ofloxacin 240 μg/ml, incubation 1 min, no riboflavin, with UVA 365 nm 9 mW/cm^2 10 min
[5] = ofloxacin 240 μg/ml, incubation 1 min, with riboflavin, no UVA
[6] = ofloxacin 240 μg/ml, incubation 1 min, with riboflavin, with UVA 365 nm 9 mW/cm^2 10 min
[7] = ofloxacin 240 μg/ml, incubation 30 min, no riboflavin, no UVA
[8] = ofloxacin 240 μg/ml, incubation 30 min, no riboflavin, with UVA 365 nm 9 mW/cm^2 10 min
[9] = ofloxacin 240 μg/ml, incubation 30 min, with riboflavin, no UVA
[10] = ofloxacin 240 μg/ml, incubation 30 min, with riboflavin, with UVA 365 nm 9 mW/cm^2 10 min
[11] = tobramycin 135 μg/ml, incubation 30 min, no riboflavin, with UVA 365 nm 9 mW/cm^2 10 min
[12] = tobramycin 135 μg/ml, incubation 30 min, with riboflavin, with UVA 365 nm 9 mW/cm^2 10 min

Compound: COc1c(N2CCNC(C)C2)c(F)cc2c(=O)c(C(=O)O)cn(C3CC3)c12 (stereo not shown) [Gatifloxacin]
- E: Staphylococcus aureus MU500 (no irradiation), replication [1]: R (Bacteria can replicate after the treatment)
- F: Staphylococcus aureus MU500 (irradiation), replication [1]: PR (Bacteria can replicate partially)
- C: Acinetobacter (no irradiation), replication (Acinetobacter): R (Bacteria can replicate after the treatment)
- D Acinetobacter (irradiation), replication (Acinetobacter): NR (No replication)
- A: Pseudomonas aeruginosa (no irradiation), replication (Pseudomonas aeruginosa): R (Bacteria can replicate after the treatment)
- B: Pseudomonas aeruginosa (irradiation), replication (Pseudomonas aeruginosa): NR (No replication)

Compound: C[C@H]1COc2c(N3CCN(C)CC3)c(F)cc3c(=O)c(C(=O)O)cn1c23 [Levofloxacin]
- E: Staphylococcus aureus MU500 (no irradiation), replication [1]: R (Bacteria can replicate after the treatment)
- F: Staphylococcus aureus MU500 (irradiation), replication [1]: PR (Bacteria can replicate partially)
- C: Acinetobacter (no irradiation), replication (Acinetobacter): R (Bacteria can replicate after the treatment)
- D Acinetobacter (irradiation), replication (Acinetobacter): NR (No replication)
- A: Pseudomonas aeruginosa (no irradiation), replication (Pseudomonas aeruginosa): R (Bacteria can replicate after the treatment)
- B: Pseudomonas aeruginosa (irradiation), replication (Pseudomonas aeruginosa): NR (No replication)

Compound: CN(C)[C@@H]1C(O)=C(C(=O)NCNCCCC[C@H](N)C(=O)O)C(=O)[C@@]2(O)C(O)=C3C(=O)c4c(O)cccc4[C@@](C)(O)[C@H]3C[C@@H]12 [Lymecycline]
- E: Staphylococcus aureus MU500 (no irradiation), replication [1]: R (Bacteria can replicate after the treatment)
- F: Staphylococcus aureus MU500 (irradiation), replication [1]: NR (No replication)
- C: Acinetobacter (no irradiation), replication (Acinetobacter): R (Bacteria can replicate after the treatment)
- D Acinetobacter (irradiation), replication (Acinetobacter): NR (No replication)
- A: Pseudomonas aeruginosa (no irradiation), replication (Pseudomonas aeruginosa): R (Bacteria can replicate after the treatment)
- B: Pseudomonas aeruginosa (irradiation), replication (Pseudomonas aeruginosa): NR (No replication)

Compound: CN(C)c1ccc(O)c2c1C[C@H]1C[C@H]3[C@H](N(C)C)C(O)=C(C(N)=O)C(=O)[C@@]3(O)C(O)=C1C2=O [Minocycline]
- E: Staphylococcus aureus MU500 (no irradiation), replication [1]: R (Bacteria can replicate after the treatment)
- F: Staphylococcus aureus MU500 (irradiation), replication [1]: NR (No replication)
- C: Acinetobacter (no irradiation), replication (Acinetobacter): R (Bacteria can replicate after the treatment)
- D Acinetobacter (irradiation), replication (Acinetobacter): NR (No replication)
- A: Pseudomonas aeruginosa (no irradiation), replication (Pseudomonas aeruginosa): R (Bacteria can replicate after the treatment)
- B: Pseudomonas aeruginosa (irradiation), replication (Pseudomonas aeruginosa): NR (No replication)

Compound: CC1COc2c(N3CCN(C)CC3)c(F)cc3c(=O)c(C(=O)O)cn1c23 (stereo not shown) [Ofloxacin]
- E: Staphylococcus aureus MU500 (no irradiation), replication [1]: R (Bacteria can replicate after the treatment)
- F: Staphylococcus aureus MU500 (irradiation), replication [1]: PR (Bacteria can replicate partially)
- CFU first run [2, 3]: 505 CFU
- CFU second run [2, 3]: 351 CFU
- Killed first run [2, 3]: 12%
- Killed second run [2, 3]: 14%
- CFU first run [2, 4]: 9 CFU
- CFU second run [2, 4]: 9 CFU
- Killed first run [2, 4]: 98%
- Killed second run [2, 4]: 98%
- CFU first run [2, 5]: 574 CFU
- CFU second run [2, 5]: 391 CFU
- Killed first run [2, 5]: 0%
- Killed second run [2, 5]: 4%
- CFU first run [2, 6]: 144 CFU
- CFU second run [2, 6]: 98 CFU
- Killed first run [2, 6]: 75%
- Killed second run [2, 6]: 76%
- CFU first run [2, 7]: 490 CFU
- CFU second run [2, 7]: 350 CFU
- Killed first run [2, 7]: 15%
- Killed second run [2, 7]: 14%
- CFU first run [2, 8]: 7 CFU
- CFU second run [2, 8]: 15 CFU
- Killed first run [2, 8]: 99%
- Killed second run [2, 8]: 96%
- CFU first run [2, 9]: 570 CFU
- CFU second run [2, 9]: 363 CFU
- Killed first run [2, 9]: 1%
- Killed second run [2, 9]: 11%
- CFU first run [2, 10]: 171 CFU
- CFU second run [2, 10]: 193 CFU
- Killed first run [2, 10]: 70%
- Killed second run [2, 10]: 53%
- C: Acinetobacter (no irradiation), replication (Acinetobacter): R (Bacteria can replicate after the treatment)
- D Acinetobacter (irradiation), replication (Acinetobacter): NR (No replication)
- A: Pseudomonas aeruginosa (no irradiation), replication (Pseudomonas aeruginosa): R (Bacteria can replicate after the treatment)
- B: Pseudomonas aeruginosa (irradiation), replication (Pseudomonas aeruginosa): NR (No replication)

Compound: CN(C)[C@@H]1C(O)=C(C(N)=O)C(=O)[C@@]2(O)C(O)=C3C(=O)c4c(O)cccc4[C@@](C)(O)[C@H]3[C@H](O)[C@@H]12 [Oxytetracycline]
- E: Staphylococcus aureus MU500 (no irradiation), replication [1]: R (Bacteria can replicate after the treatment)
- F: Staphylococcus aureus MU500 (irradiation), replication [1]: NR (No replication)
- C: Acinetobacter (no irradiation), replication (Acinetobacter): R (Bacteria can replicate after the treatment)
- D Acinetobacter (irradiation), replication (Acinetobacter): NR (No replication)
- A: Pseudomonas aeruginosa (no irradiation), replication (Pseudomonas aeruginosa): R (Bacteria can replicate after the treatment)
- B: Pseudomonas aeruginosa (irradiation), replication (Pseudomonas aeruginosa): NR (No replication)

Compound: CN(C)c1cc(NC(=O)CNC(C)(C)C)c(O)c2c1C[C@H]1C[C@H]3[C@H](N(C)C)C(O)=C(C(N)=O)C(=O)[C@@]3(O)C(O)=C1C2=O [Tigecycline]
- E: Staphylococcus aureus MU500 (no irradiation), replication [1]: R (Bacteria can replicate after the treatment)
- F: Staphylococcus aureus MU500 (irradiation), replication [1]: NR (No replication)
- C: Acinetobacter (no irradiation), replication (Acinetobacter): R (Bacteria can replicate after the treatment)
- D Acinetobacter (irradiation), replication (Acinetobacter): NR (No replication)
- A: Pseudomonas aeruginosa (no irradiation), replication (Pseudomonas aeruginosa): R (Bacteria can replicate after the treatment)
- B: Pseudomonas aeruginosa (irradiation), replication (Pseudomonas aeruginosa): NR (No replication)

Compound: NC[C@H]1O[C@H](O[C@H]2[C@H](O)[C@@H](O[C@H]3O[C@H](CO)[C@@H](O)[C@H](N)[C@H]3O)[C@H](N)C[C@@H]2N)[C@H](N)C[C@@H]1O [Tobramycin]
- E: Staphylococcus aureus MU500 (no irradiation), replication [1]: R (Bacteria can replicate after the treatment)
- F: Staphylococcus aureus MU500 (irradiation), replication [1]: R (Bacteria can replicate after the treatment)
- CFU first run [2, 11]: 416 CFU
- CFU second run [2, 11]: 481 CFU
- Killed first run [2, 11]: 36%
- Killed second run [2, 11]: 25%
- CFU first run [2, 12]: 144 CFU
- CFU second run [2, 12]: 159 CFU
- Killed first run [2, 12]: 78%
- Killed second run [2, 12]: 75%
- C: Acinetobacter (no irradiation), replication (Acinetobacter): R (Bacteria can replicate after the treatment)
- D Acinetobacter (irradiation), replication (Acinetobacter): R (Bacteria can replicate after the treatment)
- A: Pseudomonas aeruginosa (no irradiation), replication (Pseudomonas aeruginosa): R (Bacteria can replicate after the treatment)
- B: Pseudomonas aeruginosa (irradiation), replication (Pseudomonas aeruginosa): NR (No replication)
